Data: ChEMBL document CHEMBL1131678, “Arachidonic acid amide inhibitors of gap junction cell-cell communication” (1999)

Legend:
Rattus norvegicus [1] = organism: Rattus norvegicus; test: Inhibition of rat glial cell gap junction at the concentration of 50 uM; type: functional
Rattus norvegicus [2] = organism: Rattus norvegicus; test: Tested for inhibition of rat glial cell gap junction at the concentration of 20 uM; type: functional

| SMILES | inhibition at 50 µM (Rattus norvegicus [1]) | inhibition at 20 µM (Rattus norvegicus [2]) |
| --- | --- | --- |
| CCCCC/C=C\C/C=C\C/C=C\C/C=C\CCCC(=O)N(C)C(C)C | 100% |  |
| CCCCCCCC/C=C\CCCCCCCC(=O)N(C)C | 100% | 70% |
| CCCCCCCC/C=C\CCCCCCCC(=O)N(CC)CC | 100% | 15% |
| CCCCCCCC/C=C\CCCCCCCC(=O)NCC | 100% | 50% |
| CCCCC/C=C\C/C=C\C/C=C\C/C=C\CCCC(=O)NCCCC | 10% |  |
| CCCCC/C=C\C/C=C\C/C=C\C/C=C\CCCC(=O)N(C)C | 100% |  |
| CCCCCCCC/C=C\CCCCCCCC(=O)NC(C)C | 100% |  |
| CCCCCCCC/C=C\CCCCCCCC(=O)N1CCCC1 | 100% | 0% |
| CCCCC/C=C\C/C=C\C/C=C\C/C=C\CCCC(=O)N(C)OC | 100% |  |
| CCCCCCCC/C=C\CCCCCCCC(=O)NC1CC1 | 100% |  |
| C=CCNC(=O)CCCCCCC/C=C\CCCCCCCC | 100% |  |
| CCCCCCCC/C=C\CCCCCCCC(=O)N(CCO)CCO | 8% | 0% |
| CCCCC/C=C\C/C=C\C/C=C\C/C=C\CCCC(=O)NC | 100% |  |
| CCCCCCCC/C=C\CCCCCCCC(=O)N(C)C(C)C | 100% |  |
| CCCCC/C=C\C/C=C\C/C=C\C/C=C\CCCC(=O)N(CC)CC | 100% |  |
| CCCCC/C=C\C/C=C\C/C=C\C/C=C\CCCC(=O)NCC | 100% |  |
| CCCCCCCC/C=C\CCCCCCCC(=O)NC | 100% | 70% |
| CCCCC/C=C\C/C=C\C/C=C\C/C=C\CCCC(=O)N(CCO)CCO | 0% | 0% |
| CCCCCCCC/C=C\CCCCCCCC(=O)NCCCO | 100% |  |

| SMILES | inhibition at 50 µM (Rattus norvegicus [1]) | inhibition at 20 µM (Rattus norvegicus [2]) |
| --- | --- | --- |
| CCCCCCCC/C=C\CCCCCCCC(=O)NCCC | 90% | 50% |
| CCCCC/C=C\C/C=C\C/C=C\C/C=C\CCCC(=O)NC(C)C | 100% |  |
| CCCCCCCC/C=C\CCCCCCCC(=O)NCCCc1ccccc1 | 0% |  |
| C=CCNC(=O)CCC/C=C\C/C=C\C/C=C\C/C=C\CCCCC | 90% |  |
| CCCCCCCC/C=C\CCCCCCCC(=O)NO | 100% |  |
| CCCCCCCC/C=C\CCCCCCCC(=O)NCCCC | 100% |  |
| CCCCC/C=C\C/C=C\C/C=C\C/C=C\CCCC(=O)N(CCC)CCC | 10% |  |
| CCCCC/C=C\C/C=C\C/C=C\C/C=C\CCCC(=O)NC1CC1 | 100% |  |
| CCCCCCCC/C=C\CCCCCCCC(=O)N(C)OC | 100% | 100% |
| CCCCC/C=C\C/C=C\C/C=C\C/C=C\CCCC(=O)N1CCCC1 | 100% |  |
| CCCCC/C=C\C/C=C\C/C=C\C/C=C\CCCC(=O)NCCC | 100% |  |
| CCCCC/C=C\C/C=C\C/C=C\C/C=C\CCCC(=O)NCCO [ANANDAMIDE] | 100% | 35% |
| CCCCC/C=C\C/C=C\C/C=C\C/C=C\CCCC(N)=O [ARACHIDONAMIDE] | 100% | 90% |
| CCCCC/C=C\C/C=C\C/C=C\C/C=C\CCCC(=O)O [ARACHIDONIC ACID] | 0% | 0% |
| CCCCCCCC/C=C\CCCCCCCC(N)=O [OLEAMIDE] | 100% | 100% |
| CCCCCCCC/C=C\CCCCCCCC(=O)Nc1ccccc1 [OLEIC ACID ANILIDE] | 0% |  |
| CCCCCCCC/C=C\CCCCCCCC(=O)O [OLEIC ACID] | 0% | 0% |
| CCCCCCCC/C=C\CCCCCCCC(=O)NCCO [OLEOYLETHANOLAMIDE] | 100% | 0% |
